{"source": "paper PMC10288505", "about": "“Photoswitchable Calixarene Activators for Controlled Peptide Transport across Lipid Membranes” (Journal of the American Chemical Society, 2023)", "key": {"HeLa cells [1]": {"system": "HeLa cells", "test": "Flow cytometry quantification of TAMRA-R8 uptake", "assay_type": "cell-based", "conditions": "TAMRA-R8 3 μM, activator 10-250 nM, 25 min, flow cytometry mean fluorescence intensity, quadruplicate", "procedure": "(§1) Success in artificial vesicle assays encouraged us to conduct transport experiments of fluorescently labeled peptides in living cells (Figure 5). We first employed confocal fluorescence microscopy to evaluate counterion activator 2 for the intracellular transport of a carboxytetramethylrhodamine-labeled R8 peptide (TAMRA-R8) into the cytosol of HeLa cells. Cationic peptides usually remain trapped inside the endosomes when incubated with cells at low μM concentrations.[32],[44] […] The cytometry experiments validated the E isomer selective transport and indicated a four-fold intracellular delivery enhancement (Figure 5C and Figure S52). […]\n(§2) Confocal microscopy assays. […] Fluorescence of Hoechst was excited with the 405 nm laser and the emission was detected at 450/50 nm; for the TAMRA fluorescence, an excitation of 561 nm was used while the emission was detected at 620/60 nm. […]\n(§3) Flow cytometry assays. […] TAMRA fluorescence was excited at 532 nm (green laser) and […]\nmeasured on a Guava easyCyte BG HT collecting the emission at 583/26 nm (Yellow-G channel), using InCyte v3.2 (GuavaSoft, Millipore). Cells with typical FSC and SSC parameters were selected and the mean fluorescence intensity was calculated for each sample. Each condition was measured in quadruplicate. […]"}, "HeLa cells [2]": {"system": "HeLa cells", "test": "Confocal fluorescence microscopy of TAMRA-R8 cellular uptake", "assay_type": "cell-based", "conditions": "TAMRA-R8 3 μM with activator (10, 50, 100, 250 nM), 25 min at 37 °C", "procedure": "as §1\nFigure 5 (A) Schematic representation of oligoarginine intracellular delivery by both isomers of 2. (B) Confocal fluorescence microscopy images of the cellular uptake of 3 μM TAMRA-R8 (in red) facilitated by E-2/Z-2. […] (C) Fluorescence intensity of HeLa cells incubated with 3 μM TAMRA-R8 in the presence of different E-2/Z-2 concentrations, measured by flow cytometry. […]\nas §2, §3"}}}
{"smiles": "CCCCc1ccc(/N=N/c2ccc(OCCCOc3c4cc(S(=O)(=O)[O-])cc3Cc3cc(S(=O)(=O)[O-])cc(c3O)Cc3cc(S(=O)(=O)[O-])cc(c3O)Cc3cc(S(=O)(=O)[O-])cc(c3O)C4)cc2)cc1.[Li+].[Li+].[Li+].[Li+]", "note": "[E-2]", "values": [{"measurement": "Intracellular delivery enhancement of TAMRA-R8, E isomer relative to Z isomer", "setting": "HeLa cells [1]", "result": "four-fold"}, {"measurement": "Intracellular TAMRA-R8 fluorescence in the presence of activator", "setting": "HeLa cells [2]", "result": "strong diffuse fluorescence signal in the cytosol, nucleus, and nucleolus"}]}
